{"source": "patent US8580789B2", "about": "“Treating glaucoma” (The Cleveland Clinic Foundation, priority 2007, dated 2013)", "key": {"[1]": {"system": "porcine sclera", "conditions": "scleral strips; 1 hour glutaraldehyde, 5 days glyceraldehydes, 30 minutes UVA for riboflavin/UVA; cited from earlier work"}, "[2]": {"system": "peripapillary sclera", "experiment": "Surface wave velocity (stiffness) of the peripapillary sclera of whole globes, Sonic Eye elastometer", "design": "species or system porcine", "conditions": "for Mean PPS Stiffness, After Glutaraldehyde Crosslinking: Example 2, GTA annular sponge on PS only ~30 min; for Stiffness of Peripapillary Sclera, Post-crosslinking Mean ± SD: 4% GTA on PS only 30 min", "experimental": "(§1) Surface wave velocity (SWV) is a measure of tissue stiffness, and is performed by detecting the velocity of an ultrasonic wave between 2 points (Sonic Eye, Priavision, Menlo Park, Calif.) (Dupps W J, et al., J Refract Surg; 23: 66-75 (2007)). 19 porcine eyes were divided into 2 groups. In group 1 (6 eyes), the SWV across the exposed optic nerve/lamina cribrosa complex (ON/LCC) was initially measured at the eyes' physiologic IOP and at 100 mmHg. The porcine globes were cannulated with IV tubing to facilitate the change in IOP. In group 2 (13 eyes), the pre-treatment SWV was measured across the same region and atop the peri-papillary sclera, after which both regions were treated with riboflavin 1%, Q 5 min×6, and UVA irradiation (˜365 nm at 3 mW/cm^2) for 30 min per eye. The SWV was then re-measured in each eye at the pre-treatment IOP and at 100 mmHg.\n(§2) An annular sponge soaked in GTA was exposed to the peripapillary sclera for ˜30 minutes, and not the ON/LCC. Measurements were repeated as above, but also along each quadrant of peripapillary sclera to ensure uniformity and symmetry of crosslinking around the ON/LCC. The results are summarized as follows:\n(§3) Eighteen porcine globes were divided evenly into 3 groups. The optic nerves were transected to expose the ON/LC, and each globe was infused through an in-line pressure transducer for direct IOP control. Surface wave velocity, a non-destructive measure of tissue stiffness, was measured across the ON/LC and PS before and after collagen crosslinking at IOP of 10 and 30 mmHg (groups 1 and 2) and at each globe's preinflation IOP and 80 mmHg (group 3). In group 3, papillary strain was measured by analyzing the displacement of fiducial marks immediately adjacent to the ON/LC using digital photography.\n(§4) Surface wave velocity (SWV) is a measure of tissue stiffness that has been used in dermatologic applications to measure age-related changes (Potts R O, et al., J Invest Dermatol.; 82(1):97-100 (1984); Potts R O, et al., J Biomech.; 16(6):365-372 (1983); Davis B R, et al., Exp Gerontol; 24(3):201-210 (1989)), softening effects of tissue hydration and skin creams (Vexler A, et al., J Invest Dermatol; 113(5):732-739 (1999)), and sclerosing effects of radiation on breast skin (Gorodetsky R, et al., Int J Radiat Oncol Biol Phys.; 45(4):893-900 (1999)). When acoustic waves in the 0.5 to 30 kHz frequency range are used, propagation speed in skin is related to the density and stiffness of the tissue (Pereira J M, et al., J Biomech.; 23(8):745-751 (1990)). A prototype handheld ocular surface elastometer (Sonic Eye, Priavision, Menlo Park, Calif.) with an operating frequency within this range (4 kHz) and a fixed 4.5 mm wave propagation distance has been described in detail elsewhere (Dupps W J Jr, et al., J Refract Surg.; 23(1):66-75 (2007)). The Sonic Eye was used in this study as a non-destructive means of measuring local in situ tissue stiffness across and around the optic nerve head.\nEighteen porcine eyes were obtained from a local abattoir (Heffelfingers Meats, Inc., Jeromesville, Ohio) and were used within 24 hours postmortem. The optic nerves were dissected under microscopic visualization to expose the ON/LC (FIG. 1). […] Replicate SWV measurements were obtained at a rate of 1 per second with a triggering foot pedal to produce at least 5 measurements that were subsequently averaged for each region of interest. A PC software interface converted the time-of-flight data to velocity in meters per second (m/s), and the velocity data were exported to Excel (v. 11, SP2; Microsoft Corp, Redmond, Wash.) and Minitab (v. 14.20; Minitab Inc, State College, Pa.) for statistical analysis.\n(§5) Three experimental groups of 6 eyes each were defined. In group 1, SWV across the optic nerve/lamina cribrosa complex and peripapillary scleral regions of interest were measured at 10 and 30 mmHg to represent a physiological range of pressures. […]"}, "[3]": {"system": "optic nerve/lamina cribrosa complex", "experiment": "Surface wave velocity (stiffness) across the optic nerve/lamina cribrosa complex of whole globes, Sonic Eye elastometer", "design": "species or system porcine", "conditions": "for Mean ON/LCC Stiffness, After Glutaraldehyde Crosslinking: Example 2, GTA annular sponge on PS only ~30 min", "experimental": "as §1, §2, §3, §4\nEighteen porcine eyes were obtained from a local abattoir (Heffelfingers Meats, Inc., Jeromesville, Ohio) and were used within 24 hours postmortem. The optic nerves were dissected under microscopic visualization to expose the ON/LC (FIG. 1). […]\nas §5"}}}
{"smiles": "O=CCCCC=O", "note": "[GTA, glutaraldehyde]", "values": [{"measurement": "Rise in porcine scleral stress (rigidity)", "setting": "[1]", "value": 8, "unit": "×"}, {"measurement": "Mean PPS Stiffness, After Glutaraldehyde Crosslinking", "setting": "[2]; mean IOP 3 mmHg", "value": 83.6, "unit": "m/s"}, {"measurement": "Mean PPS Stiffness, After Glutaraldehyde Crosslinking", "setting": "[2]; mean IOP 80 mmHg", "value": 97.9, "unit": "m/s"}, {"measurement": "Stiffness of Peripapillary Sclera, Post-crosslinking Mean ± SD", "setting": "[2]; Example 3 Group 2, High IOP 30 mmHg", "value": "197.0±35.6", "unit": "m/s"}, {"measurement": "Stiffness of Peripapillary Sclera, Post-crosslinking Mean ± SD", "setting": "[2]; Example 3 Group 2, Low IOP 10 mmHg", "value": "148.4±43.0", "unit": "m/s"}, {"measurement": "Stiffness of Peripapillary Sclera, Post-crosslinking Mean ± SD", "setting": "[2]; Example 3 Group 3, High IOP 80 mmHg", "value": "190.2±45.8", "unit": "m/s"}, {"measurement": "Stiffness of Peripapillary Sclera, Post-crosslinking Mean ± SD", "setting": "[2]; Example 3 Group 3, Low IOP = pre-inflation 2-4 mmHg", "value": "149.9±35.7", "unit": "m/s"}, {"measurement": "Mean ON/LCC Stiffness, After Glutaraldehyde Crosslinking", "setting": "[3]; mean IOP 3 mmHg", "value": 29.5, "unit": "m/s"}, {"measurement": "Mean ON/LCC Stiffness, After Glutaraldehyde Crosslinking", "setting": "[3]; mean IOP 80 mmHg", "value": 29.3, "unit": "m/s"}, {"measurement": "Stiffness of Optic Nerve/Lamina Cribrosa Complex, Post-crosslinking Mean ± SD", "setting": "[3]; Example 3 Group 3, 4% GTA on PS only 30 min, Low IOP = pre-inflation 2-4 mmHg", "value": "29.5±2.9", "unit": "m/s"}]}
